# Experimental data from patent publication US20240409585A1, “MACROCYCLIC IMMUNOMODULATORS” (priority 2021, published 2024).
# Bridge positions count the residues as written; N and C are the ends. Square brackets hold non-standard residues; d marks the D form. Peptide text beside a SMILES is read from it. * marks the point of attachment. Phe(4-(4-pyridyl)) = N[C@@H](Cc1ccc(-c2ccncc2)cc1)C(=O)O; Tyr(3,5-Br2) = N[C@@H](Cc1cc(Br)c(O)c(Br)c1)C(=O)O; Tyr(3,5-I2) = N[C@@H](Cc1cc(I)c(O)c(I)c1)C(=O)O; Trp(6-F) = N[C@@H](Cc1c[nH]c2cc(F)ccc12)C(=O)O; Phe(4-CH2NH2) = NCc1ccc(C[C@H](N)C(=O)O)cc1; Bip = N[C@@H](Cc1ccc(-c2ccccc2)cc1)C(=O)O; dPhe(4-NH2) = Nc1ccc(C[C@@H](N)C(=O)O)cc1; Phe(4-Cl) = N[C@@H](Cc1ccc(Cl)cc1)C(=O)O; dPhe(4-Br) = N[C@H](Cc1ccc(Br)cc1)C(=O)O; Phe(4-NH2) = Nc1ccc(C[C@H](N)C(=O)O)cc1; Phe(4-F) = N[C@@H](Cc1ccc(F)cc1)C(=O)O; Phe(4-I) = N[C@@H](Cc1ccc(I)cc1)C(=O)O; h4Pal = N[C@@H](CCc1ccncc1)C(=O)O; 4Pal = N[C@@H](Cc1ccncc1)C(=O)O; NMeA = CN[C@@H](C)C(=O)O; Allyl = C=CC*
# Target: T1, PE-labeled human PD-L1-Ig binding to Jurkat cell line over-expressing human PD-1 (Jurkat-PD-1) (Homo sapiens, UniProt Q15116)
# T1 construct: expressed in transfected cells; host or cells: Jurkat
# Experiment: Jurkat-PD-1 Cell Binding High-Content Screening Assay (CBA): Method 1
# Conditions: Jurkat-hPD-1 cells, PE-labeled PD-L1-Ig 20 nM final; read-out: Jurkat HPDL1 PD1 IC50 (uM) (Method 1)
# T1 sequence (Q15116 25-288): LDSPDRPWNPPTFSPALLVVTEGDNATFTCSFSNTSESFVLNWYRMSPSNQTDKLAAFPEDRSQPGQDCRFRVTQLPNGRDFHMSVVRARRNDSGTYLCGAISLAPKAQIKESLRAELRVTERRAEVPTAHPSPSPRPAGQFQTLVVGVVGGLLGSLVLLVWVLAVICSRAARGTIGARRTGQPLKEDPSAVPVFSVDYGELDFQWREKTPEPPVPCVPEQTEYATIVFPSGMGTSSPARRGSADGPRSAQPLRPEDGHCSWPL
row,Compound,IC50 [µM]
1,CC(C)C[C@@H]1NC(=O)[C@H](CCCNC(=N)N)NC(=O)[C@@H](CC(C)C)NC(=O)[C@H](C)N(C)C(=O)[C@H](CCCNC(=N)N)NC(=O)[C@H](Cc2ccc(-c3ccccc3)cc2)NC(=O)[C@H](C(C)C)NC(=O)[C@H](Cc2c[nH]c3ccccc23)NC(=O)[C@H](CC(=O)O)NC(=O)[C@H](Cc2ccc(F)cc2)NC(=O)[C@H](Cc2ccccc2)NC(=O)CSC[C@@H](C(=O)N[C@@H](C)C(N)=O)NC(=O)[C@H]([C@@H](C)O)NC(=O)[C@H](C(C)C)NC1=O [Compound 1080] ({CH2CO}-F[Phe(4-F)]DWV[Bip]R[NMeA][dL]RLVTCA-NH2; thioether N-14),0.14
2,CC(C)C[C@@H]1NC(=O)[C@H](CCCNC(=N)N)NC(=O)[C@@H](CC(C)C)NC(=O)[C@H](C)N(C)C(=O)[C@H](CCCNC(=N)N)NC(=O)[C@H](Cc2ccc(-c3ccccc3)cc2)NC(=O)[C@H](C(C)C)NC(=O)[C@H](Cc2c[nH]c3ccccc23)NC(=O)[C@H](CC(=O)O)NC(=O)[C@H](Cc2ccc(N)cc2)NC(=O)[C@H](Cc2ccccc2)NC(=O)CSC[C@@H](C(=O)N[C@@H](C)C(N)=O)NC(=O)[C@H]([C@@H](C)O)NC(=O)[C@H](C(C)C)NC1=O [Compound 1082] ({CH2CO}-F[Phe(4-NH2)]DWV[Bip]R[NMeA][dL]RLVTCA-NH2; thioether N-14),0.04
3,CC(C)C[C@@H]1NC(=O)[C@H](CCCNC(=N)N)NC(=O)[C@@H](CC(C)C)NC(=O)[C@H](C)N(C)C(=O)[C@H](CCCNC(=N)N)NC(=O)[C@H](Cc2ccc(-c3ccccc3)cc2)NC(=O)[C@H](C(C)C)NC(=O)[C@H](Cc2c[nH]c3ccccc23)NC(=O)[C@H](CC(=O)O)NC(=O)[C@H](Cc2ccc(CN)cc2)NC(=O)[C@H](Cc2ccccc2)NC(=O)CSC[C@@H](C(=O)N[C@@H](C)C(N)=O)NC(=O)[C@H]([C@@H](C)O)NC(=O)[C@H](C(C)C)NC1=O [Compound 1083] ({CH2CO}-F[Phe(4-CH2NH2)]DWV[Bip]R[NMeA][dL]RLVTCA-NH2; thioether N-14),0.25
4,CC(C)C[C@@H]1NC(=O)[C@H](CCCNC(=N)N)NC(=O)[C@@H](CC(C)C)NC(=O)[C@H](C)N(C)C(=O)[C@H](CCCNC(=N)N)NC(=O)[C@H](Cc2ccc(-c3ccccc3)cc2)NC(=O)[C@H](C(C)C)NC(=O)[C@H](Cc2c[nH]c3ccccc23)NC(=O)[C@H](CC(=O)O)NC(=O)[C@H](CCc2ccncc2)NC(=O)[C@H](Cc2ccccc2)NC(=O)CSC[C@@H](C(=O)N[C@@H](C)C(N)=O)NC(=O)[C@H]([C@@H](C)O)NC(=O)[C@H](C(C)C)NC1=O [Compound 1084] ({CH2CO}-F[h4Pal]DWV[Bip]R[NMeA][dL]RLVTCA-NH2; thioether N-14),0.09
5,CC(C)C[C@@H]1NC(=O)[C@H](CCCNC(=N)N)NC(=O)[C@@H](CC(C)C)NC(=O)[C@H](C)N(C)C(=O)[C@H](CCCNC(=N)N)NC(=O)[C@H](Cc2ccc(-c3ccccc3)cc2)NC(=O)[C@H](C(C)C)NC(=O)[C@H](Cc2c[nH]c3ccccc23)NC(=O)[C@H](CC(=O)O)NC(=O)[C@H](Cc2ccncc2)NC(=O)[C@H](Cc2ccccc2)NC(=O)CSC[C@@H](C(=O)N[C@@H](C)C(N)=O)NC(=O)[C@H]([C@@H](C)O)NC(=O)[C@H](C(C)C)NC1=O [Compound 1085] ({CH2CO}-F[4Pal]DWV[Bip]R[NMeA][dL]RLVTCA-NH2; thioether N-14),0.07
6,COc1ccc(C[C@@H]2NC(=O)[C@H](Cc3ccccc3)NC(=O)CSC[C@@H](C(=O)N[C@@H](C)C(N)=O)NC(=O)[C@H]([C@@H](C)O)NC(=O)[C@H](C(C)C)NC(=O)[C@H](CC(C)C)NC(=O)[C@H](CCCNC(=N)N)NC(=O)[C@@H](CC(C)C)NC(=O)[C@H](C)N(C)C(=O)[C@H](CCCNC(=N)N)NC(=O)[C@H](Cc3ccc(-c4ccccc4)cc3)NC(=O)[C@H](C(C)C)NC(=O)[C@H](Cc3c[nH]c4ccccc34)NC(=O)[C@H](CC(=O)O)NC2=O)cc1 [Compound 1091] ({CH2CO}-FY(Me)DWV[Bip]R[NMeA][dL]RLVTCA-NH2; thioether N-14),0.09
7,"CC(C)C[C@@H]1NC(=O)[C@H](CCCNC(=N)N)NC(=O)[C@@H](CC(C)C)NC(=O)[C@H](C)N(C)C(=O)[C@H](CCCNC(=N)N)NC(=O)[C@H](Cc2ccc(-c3ccccc3)cc2)NC(=O)[C@H](C(C)C)NC(=O)[C@H](Cc2c[nH]c3ccccc23)NC(=O)[C@H](CC(=O)O)NC(=O)[C@H](Cc2cc(Br)c(O)c(Br)c2)NC(=O)[C@H](Cc2ccccc2)NC(=O)CSC[C@@H](C(=O)N[C@@H](C)C(N)=O)NC(=O)[C@H]([C@@H](C)O)NC(=O)[C@H](C(C)C)NC1=O [Compound 1092] ({CH2CO}-F[Tyr(3,5-Br2)]DWV[Bip]R[NMeA][dL]RLVTCA-NH2; thioether N-14)",0.42
8,"CC(C)C[C@@H]1NC(=O)[C@H](CCCNC(=N)N)NC(=O)[C@@H](CC(C)C)NC(=O)[C@H](C)N(C)C(=O)[C@H](CCCNC(=N)N)NC(=O)[C@H](Cc2ccc(-c3ccccc3)cc2)NC(=O)[C@H](C(C)C)NC(=O)[C@H](Cc2c[nH]c3ccccc23)NC(=O)[C@H](CC(=O)O)NC(=O)[C@H](Cc2cc(I)c(O)c(I)c2)NC(=O)[C@H](Cc2ccccc2)NC(=O)CSC[C@@H](C(=O)N[C@@H](C)C(N)=O)NC(=O)[C@H]([C@@H](C)O)NC(=O)[C@H](C(C)C)NC1=O [Compound 1093] ({CH2CO}-F[Tyr(3,5-I2)]DWV[Bip]R[NMeA][dL]RLVTCA-NH2; thioether N-14)",0.05

# The remaining lines, values ahead:
row,IC50 [µM],Compound
1,0.48,CC(C)C[C@@H]1NC(=O)[C@H](CCCNC(=N)N)NC(=O)[C@@H](CC(C)C)NC(=O)[C@H](C)N(C)C(=O)[C@H](CCCNC(=N)N)NC(=O)[C@H](Cc2ccc(-c3ccncc3)cc2)NC(=O)[C@H](C(C)C)NC(=O)[C@H](Cc2c[nH]c3ccccc23)NC(=O)[C@H](CC(=O)O)NC(=O)[C@H](Cc2ccc(O)cc2)NC(=O)[C@H](Cc2ccccc2)NC(=O)CSC[C@@H](C(=O)N[C@@H](C)C(N)=O)NC(=O)[C@H]([C@@H](C)O)NC(=O)[C@H](C(C)C)NC1=O [Compound 1078] ({CH2CO}-FYDWV[Phe(4-(4-pyridyl))]R[NMeA][dL]RLVTCA-NH2; thioether N-14)
2,0.25,CC(C)C[C@@H]1NC(=O)[C@H](CCCNC(=N)N)NC(=O)[C@@H](CC(C)C)NC(=O)[C@H](C)N(C)C(=O)[C@H](CCCNC(=N)N)NC(=O)[C@H](Cc2ccc(-c3ccccc3)cc2)NC(=O)[C@H](C(C)C)NC(=O)[C@H](Cc2c[nH]c3cc(F)ccc23)NC(=O)[C@H](CC(=O)O)NC(=O)[C@H](Cc2ccc(O)cc2)NC(=O)[C@H](Cc2ccccc2)NC(=O)CSC[C@@H](C(=O)N[C@@H](C)C(N)=O)NC(=O)[C@H]([C@@H](C)O)NC(=O)[C@H](C(C)C)NC1=O [Compound 1079] ({CH2CO}-FYD[Trp(6-F)]V[Bip]R[NMeA][dL]RLVTCA-NH2; thioether N-14)
3,0.06,CC(C)C[C@@H]1NC(=O)[C@H](CCCNC(=N)N)NC(=O)[C@@H](CC(C)C)NC(=O)[C@H](C)N(C)C(=O)[C@H](CCCNC(=N)N)NC(=O)[C@H](Cc2ccc(-c3ccccc3)cc2)NC(=O)[C@H](C(C)C)NC(=O)[C@H](Cc2c[nH]c3ccccc23)NC(=O)[C@H](CC(=O)O)NC(=O)[C@H](Cc2ccc(Cl)cc2)NC(=O)[C@H](Cc2ccccc2)NC(=O)CSC[C@@H](C(=O)N[C@@H](C)C(N)=O)NC(=O)[C@H]([C@@H](C)O)NC(=O)[C@H](C(C)C)NC1=O [Compound 1081] ({CH2CO}-F[Phe(4-Cl)]DWV[Bip]R[NMeA][dL]RLVTCA-NH2; thioether N-14)
4,0.69,CC(C)C[C@@H]1NC(=O)[C@H](CCCNC(=N)N)NC(=O)[C@@H](Cc2ccc(Br)cc2)NC(=O)[C@H](C)N(C)C(=O)[C@H](CCCNC(=N)N)NC(=O)[C@H](Cc2ccc(-c3ccccc3)cc2)NC(=O)[C@H](C(C)C)NC(=O)[C@H](Cc2c[nH]c3ccccc23)NC(=O)[C@H](CC(=O)O)NC(=O)[C@H](Cc2ccc(O)cc2)NC(=O)[C@H](Cc2ccccc2)NC(=O)CSC[C@@H](C(=O)N[C@@H](C)C(N)=O)NC(=O)[C@H]([C@@H](C)O)NC(=O)[C@H](C(C)C)NC1=O [Compound 1086] ({CH2CO}-FYDWV[Bip]R[NMeA][dPhe(4-Br)]RLVTCA-NH2; thioether N-14)
5,0.33,CC(C)C[C@@H]1NC(=O)[C@H](CCCNC(=N)N)NC(=O)[C@@H](Cc2ccc(N)cc2)NC(=O)[C@H](C)N(C)C(=O)[C@H](CCCNC(=N)N)NC(=O)[C@H](Cc2ccc(-c3ccccc3)cc2)NC(=O)[C@H](C(C)C)NC(=O)[C@H](Cc2c[nH]c3ccccc23)NC(=O)[C@H](CC(=O)O)NC(=O)[C@H](Cc2ccc(O)cc2)NC(=O)[C@H](Cc2ccccc2)NC(=O)CSC[C@@H](C(=O)N[C@@H](C)C(N)=O)NC(=O)[C@H]([C@@H](C)O)NC(=O)[C@H](C(C)C)NC1=O [Compound 1087] ({CH2CO}-FYDWV[Bip]R[NMeA][dPhe(4-NH2)]RLVTCA-NH2; thioether N-14)
6,0.41,C=CCOc1ccc(C[C@@H]2NC(=O)[C@H](Cc3ccccc3)NC(=O)CSC[C@@H](C(=O)N[C@@H](C)C(N)=O)NC(=O)[C@H]([C@@H](C)O)NC(=O)[C@H](C(C)C)NC(=O)[C@H](CC(C)C)NC(=O)[C@H](CCCNC(=N)N)NC(=O)[C@@H](CC(C)C)NC(=O)[C@H](C)N(C)C(=O)[C@H](CCCNC(=N)N)NC(=O)[C@H](Cc3ccc(-c4ccccc4)cc3)NC(=O)[C@H](C(C)C)NC(=O)[C@H](Cc3c[nH]c4ccccc34)NC(=O)[C@H](CC(=O)O)NC2=O)cc1 [Compound 1088] ({CH2CO}-FY(Allyl)DWV[Bip]R[NMeA][dL]RLVTCA-NH2; thioether N-14)
7,0.94,CC(C)C[C@@H]1NC(=O)[C@H](CCCNC(=N)N)NC(=O)[C@@H](CC(C)C)NC(=O)[C@H](C)N(C)C(=O)[C@H](CCCNC(=N)N)NC(=O)[C@H](Cc2ccc(I)cc2)NC(=O)[C@H](C(C)C)NC(=O)[C@H](Cc2c[nH]c3ccccc23)NC(=O)[C@H](CC(=O)O)NC(=O)[C@H](Cc2ccc(O)cc2)NC(=O)[C@H](Cc2ccccc2)NC(=O)CSC[C@@H](C(=O)N[C@@H](C)C(N)=O)NC(=O)[C@H]([C@@H](C)O)NC(=O)[C@H](C(C)C)NC1=O [Compound 1089] ({CH2CO}-FYDWV[Phe(4-I)]R[NMeA][dL]RLVTCA-NH2; thioether N-14)
